In patent US20130287688A1, “NOVEL COMPOSITIONS AND USES OF ANTI-HYPERTENSION AGENTS FOR CANCER THERAPY” (XTUIT PHARMACEUTICALS, INC., priority 2010, published 2013):

Columns and labels:
[1] = tested on: tumors; assay: Solid stress after a panel of ARBs; type: in vivo; details: 40 mg/kg losartan, 3.2 mg/kg candesartan, 32 mg/kg valsartan
Experimental: Solid stress levels in tumors after angiotensin inhibition using the ARBs losartan, candesartan, and valsartan are shown. Doses were chosen based on their relative doses in patients for hypertension indications (40 mg/kg losartan, 3.2 mg/kg candesartan, 32 mg/kg valsartan). […] Animal numbers n=6-7. Statistical tests were corrected for multiple comparisons using the Holm-Bonferroni method.
The mechanism responsible for the increase in tumor vessel perfusion by losartan was investigated. Desmoplasia, high stromal cell and matrix density, is a major contributor to the solid stress accumulation that compresses vessels (Stylianopoulos T, et al., Growth-induced mechanical stress in murine and human tumors: causes, consequences and remedies. under review. 2012). Since angiotensin inhibitors reduce matrix production in tumors (Diop-Frimpong B, et al., Proc Natl Acad Sci USA. 2011; 108(7): 2909-14), it was hypothesized that they decompress vessels and increase perfusion by decreasing solid stress. Collagen levels were used as a metric of matrix production as described in Diop-Frimpong et al., Proc Nall Acad Sci USA. […] Moreover, losartan decreased collagen I concentration, measured based on staining intensity, in E0771 and AK4.4 tumors (FIGS. 24B-24C). Of note, dense collagen seemed to colocalize with low-perfusion areas (FIG. 24C). Next, solid stress in these tumors was measured using recently established technique described in Stylianopoulos T, et al., Growth-induced mechanical stress in murine and human tumors: causes, consequences and remedies. under review. 2012. […]
Solid stress: Solid stress was measured using the tumor opening technique as described previously (Stylianopoulos T, et al., Growth-induced mechanical stress in murine and human tumors: causes, consequences and remedies. under review. 2012). […] Subsequently, each tumor was excised, washed with Hanks' Balanced Salt Solution (HBSS) and its three dimensions were measured. […] Afterwards, the opening resulting from the cut was measured at the middle of the cut at the surface of the tumor. […]

[2] = tested on: E0771 tumors; assay: Hypoxic fraction by pimonidazole staining; design: species or system mice; details: mouse, in vivo
Experimental: Losartan decreases the hypoxic fraction in E0771 tumors (P=0.027, Student's t-test) due to the increase in oxygen delivery.
Oxygenation was then studied using phosphorescence quenching microscopy. […] This decrease in tumor hypoxia was confirmed by using pimonidazole staining (FIGS. 29D and 30). To determine if losartan also increases nanomedicine delivery, which is dependent on both vascular supply and penetration across vessel walls into tumor tissue, nanoparticle penetration was measured using intravital multiphoton microscopy. Nanoparticle penetration rates were quantified as transvascular mass flux per unit vascular surface area and transvascular concentration difference, termed as the effective permeability. […] Penetration rates are largely dependent on fluid flow through the viscoelastic and tortuous tumor interstitium, which is a function of interstitial hydraulic conductivity. It was determined that losartan also increases the hydraulic conductivity of E0771 tumors (FIG. 31), likely through its anti-matrix effects, and a mathematical model (Chauhan V P, et al., Nature Nanotechnology. 2012; advance online publication) was used to confirm that this can improve the penetration rate of all sizes of nanomedicines (FIG. 32). Thus, “microenvironmental normalization” with ARBs and ACE-Is increases the delivery of oxygen and all sizes of therapeutics to tumors. […]

[3] = tested on: HSTS26T tumors; assay: Necrosis 21 days after HSV injection; type: in vivo, mice; details: losartan prior to HSV injection
Description: (§1) Hematoxylin staining of intact tumor areas, necrosis, and HSV immunostaining is shown. Necrotic regions are indicated by black arrows. Even though there was no detectable difference in necrotic area between HSTS26T and MU89, necrosis is confined to specific regions in MU89 while there is necrotic tissue (bounded by HSV immunostaining) throughout HSTS26T tumors. Scale bar=2 mm.
(§2) To determine the relationship between virus infection, necrosis and collagen structure 21 days after the HSV injection, consecutive paraffin sections were stained with either a polyclonal HSV-1 antibody (DAKO, Glostrup Denmark) or a collagen I antibody (LF-67). For collagen I staining in paraffin sections, slides were treated with 3% hydrogen peroxide prior to antigen retrieval with Target Retrieval Solution, pH 9 (DAKO, Carpinteria, Calif.). The slides were then treated with 0.05% trypsin before the primary collagen I antibody was applied at a dilution of 1:500. Sections stained with collagen I or HSV were imaged with a light microscope.

[4] = tested on: Mu89 tumors; assay: Necrosis 21 days after HSV injection; type: in vivo, mice; details: losartan prior to HSV injection
Description: as §1, §2

`CCCCc1nc(Cl)c(CO)n1Cc1ccc(-c2ccccc2-c2nn[nH]n2)cc1` [losartan] was tested, and the solid stress [1] was “reduce solid stress to a similar degree”, the hypoxic fraction [2] was “decreases” and the necrosis in tumors [3] was “two-fold increase”. The necrosis in tumors [4] was “two-fold increase”.
